# According to patent US9481659B2, “Selective heterocyclic sphingosine 1 phosphate receptor modulators” (Celgene International II SÀRL, priority 2011, dated 2016):
# Where a name gives a salt, the structure may show the parent alone.
# Target: S1P1/EDG1 (Homo sapiens, UniProt P21453)
# Experiment: S1P1 CRE-bla CHOK1 reporter assay, inhibition of Forskolin induced cAMP
# Assay type: cell-based
# Details: agonist activity range; S1P1 CRE-bla CHOK1 cells, 2 μM Forskolin; read-out: S1P1 ACTIVITY
# Method: Generation of S1P1-Mediated Inhibition of cAMP Reporter Assay
# A mammalian expression plasmid containing S1P1/EDG1 cloned into pcDNA3.1 was purchased from Missouri S&T cDNA Resource Centre. […] S1P1/pcDNA3.1 was transfected into the CRE-bla CHO K1 (Invitrogen) cell line, and stable single cell clones were selected using standard techniques.
# S1P1 CRE-Bla CHOK1 Reporter Assay—Characterization of S1P1 Agonists
# Cells were seeded into 384-well black wall/clear bottom plates at 10^4 cells/well/19.5 μl assay media (DMEM-phenol free, 0.5% charcoal/dextran stripped serum, 2 mM glutamine, 0.1 mM NEAA, 1 mM Na-Pyruvate, 25 mM Hepes) and incubated for 18 hrs at 37° C. in 5% CO2. Dose response curves (10-point) were generated in 10 mM Hepes, 0.1% Pluronic F127, in the presence of Forskolin. Cells were treated with 0.5 μl compound in the presence of 2 μM Forskolin for 4 hrs at 37° C. The FRET-based β-lactamase fluorescent substrate (LiveBLAzer™-FRET B/G Loading Kit CC4-AM; Invitrogen) was prepared according to manufacturer's directions, and incubated with cells for 2 hrs at room temperature.
# S1P1/EDG1, sequence (P21453 whole entry): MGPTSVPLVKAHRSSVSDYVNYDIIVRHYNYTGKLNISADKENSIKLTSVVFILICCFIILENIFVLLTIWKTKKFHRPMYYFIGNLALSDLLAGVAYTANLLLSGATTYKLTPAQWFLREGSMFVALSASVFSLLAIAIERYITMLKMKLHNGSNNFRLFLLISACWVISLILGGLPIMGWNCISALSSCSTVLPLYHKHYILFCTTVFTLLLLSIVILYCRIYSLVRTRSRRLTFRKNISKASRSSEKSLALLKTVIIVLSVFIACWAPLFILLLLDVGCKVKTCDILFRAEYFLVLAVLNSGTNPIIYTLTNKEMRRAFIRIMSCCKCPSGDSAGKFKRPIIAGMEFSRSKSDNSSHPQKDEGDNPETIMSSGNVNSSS
row,SMILES,EC50 [nM]
1,CC(C)Oc1ccc(-c2ncc(-c3cccc4c3CC[C@H]4NS(=O)(=O)C3CC3)s2)cc1C#N [Compound 117],0.05 to 0.5
2,CC(C)Oc1ccc(-c2ncc(-c3cccc4c3CC[C@H]4NS(=O)(=O)Cc3ccccc3)s2)cc1C#N [Compound 120],0.5 to 5
3,CC(C)Oc1ccc(-c2ncc(-c3cccc4c3CC[C@H]4NS(=O)(=O)CCN3CCOCC3)s2)cc1C#N [Compound 121],0.5 to 5
4,CC(C)Oc1ccc(-c2ncc(-c3cccc4c3CC[C@H]4NS(=O)(=O)CCN(C)C)s2)cc1C#N [Compound 123],0.5 to 5
5,CNCCS(=O)(=O)N[C@@H]1CCc2c(-c3cnc(-c4ccc(OC(C)C)c(C#N)c4)s3)cccc21 [Compound 126],0.5 to 5
6,CC(C)Oc1ccc(-c2ncc(-c3cccc4c3CC[C@H]4NS(=O)(=O)CCN3CCC3)s2)cc1C#N [Compound 127],0.5 to 5
7,CC(C)Oc1ccc(-c2ncc(-c3cccc4c3CC[C@H]4NS(=O)(=O)CCN3CCCC3)s2)cc1C#N [Compound 130],0.5 to 5
8,CC(C)Oc1ccc(-c2ncc(-c3cccc4c3CC[C@@H]4NS(=O)(=O)CCN3CC[C@@H](O)C3)s2)cc1C#N [Compound 131],0.5 to 5
9,CC(C)Oc1ccc(-c2ncc(-c3cccc4c3CC[C@H]4NS(=O)(=O)CCN3CC[C@@H](O)C3)s2)cc1C#N [Compound 133],0.5 to 5
10,CC(C)Oc1ccc(-c2ncc(-c3cccc4c3CC[C@H]4NS(=O)(=O)CCN3CC[C@H](O)C3)s2)cc1C#N [Compound 134],0.5 to 5
11,CC(C)Oc1ccc(-c2ncc(-c3cccc4c3CC[C@H]4NS(=O)(=O)CCN3CC[C@@H](N)C3)s2)cc1C#N [Compound 135],> 5
12,CC(C)Oc1ccc(-c2ncc(-c3cccc4c3CC[C@H]4NS(=O)(=O)CCN3CC[C@H](N)C3)s2)cc1C#N [Compound 136],> 5
13,CC(C)Oc1ccc(-c2ncc(-c3cccc4c3CC[C@H]4NS(=O)(=O)CCN3CCCCC3)s2)cc1C#N [Compound 140],> 5
14,"CC(C)Oc1ccc(-c2ncc(-c3cccc4c3CC[C@@H]4NS(=O)(=O)CCN3CCC[C@@H](O)C3)s2)cc1C#N [Compound 141, N—((S)-4-(2-(3-cyano-4-isopropoxyphenyl)thiazol-5-yl)-2,3-dihydro-1H-inden-1-yl)-2-((R)-3-hydroxypiperidin-1-yl)ethanesulfonamide]",0.5 to 5
15,"CC(C)Oc1ccc(-c2ncc(-c3cccc4c3CC[C@H]4NS(=O)(=O)CCN3CCC[C@@H](O)C3)s2)cc1C#N [Compound 143, N—((R)-4-(2-(3-cyano-4-isopropoxyphenyl)thiazol-5-yl)-2,3-dihydro-1H-inden-1-yl)-2-((R)-3-hydroxypiperidin-1-yl)ethanesulfonamide]",0.5 to 5
16,CC(C)Oc1ccc(-c2ncc(-c3cccc4c3CC[C@H]4NS(=O)(=O)CCN3CCC[C@H](O)C3)s2)cc1C#N [Compound 144],0.5 to 5
17,CC(C)Oc1ccc(-c2ncc(-c3cccc4c3CC[C@H]4NS(=O)(=O)CCN3CCC(O)CC3)s2)cc1C#N [Compound 146],0.5 to 5
18,CC(C)Oc1ccc(-c2ncc(-c3cccc4c3CC[C@H]4NS(=O)(=O)CCN3CCNCC3)s2)cc1C#N [Compound 151],> 5
19,"COC(=O)CS(=O)(=O)N[C@@H]1CCc2c(-c3cnc(-c4ccc(OC(C)C)c(C#N)c4)s3)cccc21 [Compound 154, (R)-methyl 2-(N-(4-(2-(3-cyano-4-isopropoxyphenyl)thiazol-5-yl)-2,3-dihydro-1H-inden-1-yl)sulfamoyl)acetate]",0.05 to 0.5
20,COC(=O)CCS(=O)(=O)N[C@@H]1CCc2c(-c3cnc(-c4ccc(OC(C)C)c(C#N)c4)s3)cccc21 [Compound 156],0.05 to 0.5
21,"CC(C)Oc1ccc(-c2ncc(-c3cccc4c3CC[C@H]4NS(=O)(=O)CC(=O)O)s2)cc1C#N [Compound 158, (R)-2-(N-(4-(2-(3-cyano-4-isopropoxyphenyl)thiazol-5-yl)-2,3-dihydro-1H-inden-1-yl)sulfamoyl)acetic acid]",< 0.05
22,CC(C)Oc1ccc(-c2ncc(-c3cccc4c3CC[C@H]4NS(=O)(=O)CCC(=O)O)s2)cc1C#N [Compound 160],< 0.05
23,"CC(C)Oc1ccc(-c2ncc(-c3cccc4c3CC[C@H]4NS(=O)(=O)CCO)s2)cc1C#N [Compound 164, (R)—N-(4-(2-(3-cyano-4-isopropoxyphenyl)thiazol-5-yl)-2,3-dihydro-1H-inden-1-yl)-2-hydroxyethanesulfonamide]",0.05 to 0.5
24,CC(C)Oc1ccc(-c2ncc(-c3cccc4c3CC[C@H]4NC(=O)N(C)C)s2)cc1C#N [Compound 168],0.05 to 0.5
25,CC(C)Oc1ccc(-c2ncc(-c3cccc4c3CC[C@H]4NC(=O)N3CC(O)C3)s2)cc1C#N [Compound 171],0.05 to 0.5
26,CC(C)Oc1ccc(-c2ncc(-c3cccc4c3CC[C@H]4NC(=O)N3CC[C@@H](O)C3)s2)cc1C#N [Compound 174],0.05 to 0.5

row,SMILES,EC50 [nM]
1,CC(C)Oc1ccc(-c2ncc(-c3cccc4c3CC[C@H]4NC(=O)N3CC[C@H](O)C3)s2)cc1C#N [Compound 177],0.05 to 0.5
2,CC(C)Oc1ccc(-c2ncc(-c3cccc4c3CC[C@H]4NC(=O)N3CC[C@@H](N)C3)s2)cc1C#N [Compound 178],0.05 to 0.5
3,CC(C)Oc1ccc(-c2ncc(-c3cccc4c3CC[C@H]4NC(=O)N3CC[C@H](N)C3)s2)cc1C#N [Compound 179],0.5 to 5
4,CC(C)Oc1ccc(-c2ncc(-c3cccc4c3CC[C@H]4NC(=O)N3CC[C@H](N(C)C)C3)s2)cc1C#N [Compound 182],0.5 to 5
5,CC(C)Oc1ccc(-c2ncc(-c3cccc4c3CC[C@H]4NC(=O)N3CC[C@@H](N(C)C)C3)s2)cc1C#N [Compound 183],0.5 to 5
6,CC(C)Oc1ccc(-c2ncc(-c3cccc4c3CC[C@H]4NC(=O)N3CCNCC3)s2)cc1C#N [Compound 188],0.5 to 5
7,CC(C)Oc1ccc(-c2ncc(-c3cccc4c3CC[C@H]4NC(=O)N3CCN(C)CC3)s2)cc1C#N [Compound 190],0.5 to 5
8,CC(C)Oc1ccc(-c2ncc(-c3cccc4c3CC[C@H]4NC(=O)N3CCC(N(C)C)CC3)s2)cc1C#N [Compound 192],> 5
9,CC(C)Oc1ccc(-c2ncc(-c3cccc4c3CC[C@H]4NC(=O)N3CCC(CO)CC3)s2)cc1C#N [Compound 195],0.5 to 5
10,CC(C)Oc1ccc(-c2ncc(-c3cccc4c3CC[C@@H]4NC(=O)N3CCC[C@@H](O)C3)s2)cc1C#N [Compound 196],0.5 to 5
11,CC(C)Oc1ccc(-c2ncc(-c3cccc4c3CC[C@H]4NC(=O)N3CCC[C@H](O)C3)s2)cc1C#N [Compound 197],0.5 to 5
12,CC(C)Oc1ccc(-c2ncc(-c3cccc4c3CC[C@H]4NC(=O)N3CCC[C@@H](O)C3)s2)cc1C#N [Compound 198],0.05 to 0.5
13,CC(C)Oc1ccc(-c2ncc(-c3cccc4c3CC[C@H]4NC(=O)N3CCC[C@H](O)C3)s2)cc1C#N [Compound 199],0.05 to 0.5
14,CC(C)Oc1ccc(-c2ncc(-c3cccc4c3CC[C@H]4NC(=O)N3CCC(CC(=O)O)CC3)s2)cc1C#N [Compound 200],0.05 to 0.5
15,CC(C)Oc1ccc(-c2ncc(-c3cccc4c3CC[C@H]4NC(=O)N3CCC(O)CC3)s2)cc1C#N [Compound 202],0.5 to 5
16,COC(=O)CC1CCN(C(=O)N[C@@H]2CCc3c(-c4cnc(-c5ccc(OC(C)C)c(C#N)c5)s4)cccc32)CC1 [Compound 204],0.5 to 5
17,"CC(C)Oc1ccc(-c2ncc(-c3cccc4c3CC[C@H]4NCCS(C)(=O)=O)s2)cc1C#N [Compound 220, (R)-2-isopropoxy-5-(5-(1-((2-(methylsulfonyl)ethyl)amino)-2,3-dihydro-1H-inden-4-yl)thiazol-2-yl)benzonitrile]",0.05 to 0.5
18,"CC(C)Oc1ccc(-c2nnc(-c3cccc4c3CCC[C@H]4N)s2)cc1C#N [Compound 228, (R)-5-(5-(5-amino-5,6,7,8-tetrahydronaphthalen-1-yl)-1,3,4-thiadiazol-2-yl)-2-isopropoxybenzonitrile hydrochloride]",0.5 to 5
19,"CC(C)Oc1ccc(-c2nnc(-c3cccc4c3CCC[C@@H]4N)s2)cc1C#N [Compound 229, (S)-5-(5-(5-amino-5,6,7,8-tetrahydronaphthalen-1-yl)-1,3,4-thiadiazol-2-yl)-2-isopropoxybenzonitrile hydrochloride]",0.5 to 5
20,"CC(C)Oc1ccc(-c2ncc(-c3cccc4c3CCC[C@H]4N)s2)cc1C#N [Compound 230, (R)-5-(5-(5-amino-5,6,7,8-tetrahydronaphthalen-1-yl)thiazol-2-yl)-2-isopropoxybenzonitrile hydrochloride]",0.5 to 5
21,"CC(=O)N[C@@H]1CCCc2c(-c3nnc(-c4ccc(OC(C)C)c(C#N)c4)s3)cccc21 [Compound 231, (R)—N-(5-(5-(3-cyano-4-isopropoxyphenyl)-1,3,4-thiadiazol-2-yl)-1,2,3,4-tetrahydronaphthalen-1-yl) acetamide]",0.05 to 0.5
22,"CC(=O)N[C@H]1CCCc2c(-c3nnc(-c4ccc(OC(C)C)c(C#N)c4)s3)cccc21 [Compound 232, (S)—N-(5-(5-(3-cyano-4-isopropoxyphenyl)-1,3,4-thiadiazol-2-yl)-1,2,3,4-tetrahydronaphthalen-1-yl)acetamide]",0.5 to 5
23,CC(C)Oc1ccc(-c2nnc(-c3cccc4c3CCC[C@H]4NC(=O)c3ccncc3)s2)cc1C#N [Compound 233],0.5 to 5
24,CC(C)Oc1ccc(-c2nnc(-c3cccc4c3CCC[C@H]4NC(=O)c3cccnc3)s2)cc1C#N [Compound 234],0.5 to 5
25,CC(C)Oc1ccc(-c2nnc(-c3cccc4c3CCC[C@H]4NC(=O)c3ccccn3)s2)cc1C#N [Compound 235],0.5 to 5
